From patent publication US20240425483A1, “INDOLINES AS PROTAC COMPOUNDS” (NeoPhore Limited, priority 2021, published 2024) come the findings set out here.

The target in the assay is T1, PMS2 protein (Homo sapiens, UniProt P54278).
T1 construct: host or cells: SW620 human colorectal carcinoma cells
T1 sequence (P54278 1-862): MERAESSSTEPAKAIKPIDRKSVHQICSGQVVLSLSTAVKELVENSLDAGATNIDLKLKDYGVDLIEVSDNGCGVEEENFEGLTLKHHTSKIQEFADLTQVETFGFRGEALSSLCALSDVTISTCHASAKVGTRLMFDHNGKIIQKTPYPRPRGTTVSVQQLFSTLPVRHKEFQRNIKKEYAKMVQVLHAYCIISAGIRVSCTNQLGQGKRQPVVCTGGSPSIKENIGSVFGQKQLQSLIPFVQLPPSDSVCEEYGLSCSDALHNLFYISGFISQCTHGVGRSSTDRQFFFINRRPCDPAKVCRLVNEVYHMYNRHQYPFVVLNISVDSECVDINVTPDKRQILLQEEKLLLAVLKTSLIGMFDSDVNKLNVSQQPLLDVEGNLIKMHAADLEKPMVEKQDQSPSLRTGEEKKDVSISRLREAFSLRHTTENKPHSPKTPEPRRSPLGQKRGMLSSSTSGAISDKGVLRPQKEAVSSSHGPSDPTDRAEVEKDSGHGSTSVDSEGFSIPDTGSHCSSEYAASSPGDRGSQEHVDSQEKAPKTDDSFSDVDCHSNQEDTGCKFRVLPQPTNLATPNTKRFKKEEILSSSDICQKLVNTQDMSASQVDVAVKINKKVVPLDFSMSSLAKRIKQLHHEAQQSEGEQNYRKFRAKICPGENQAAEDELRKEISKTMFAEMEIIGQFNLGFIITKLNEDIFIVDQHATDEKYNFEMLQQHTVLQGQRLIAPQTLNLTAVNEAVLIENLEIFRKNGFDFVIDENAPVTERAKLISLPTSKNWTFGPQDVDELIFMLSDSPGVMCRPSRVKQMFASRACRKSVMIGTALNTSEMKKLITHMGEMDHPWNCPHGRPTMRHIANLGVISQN
The assay is described as follows: PROTAC screening in SW620 human colorectal carcinoma cells, PMS2 protein level by JESS Western blot. The class given is cell-based. As to conditions: SW-620, 24 h, 1 uM compound, normalised to actin and DMSO control, Table A1. As to the method:
PROTAC Screening Protocol Using SW620 Human Colorectal Carcinoma Cells
SVW620 cells (ATCC/[…]) were cultured in T75 Falcon flasks in culture media (F12/DMEM 1:1 media, 10% FCS, +L-G supplement). Cells were split twice a week, for a maximum of 6 weeks. Media was aspirated, and cells washed with 10 mL of sterile PBS. PBS was aspirated, and cells incubated with 1.5 mL TrypLE for up to 5 minutes at 37° C., 5% CO2. Once cells had detached, TrypLE was neutralised with 10 mL culture media and cells mixed 1:1 with Trypan blue and quantified using a Luna cell counter. Cells were then seeded into fresh T75 flasks with 1×10^6 cells and 10 mL culture media.
SW620 cells, cultured and counted as above, were used to seed 12 well plates at a density of 1.5×10^5 cells/well and incubated overnight at 37° C., 5% CO2. Test compounds were solubilized in DMSO to a stock concentration of 10 mM and serially diluted in DMSO and media to their test concentration; the final concentration of DMSO was 0.1% (v/v). Each concentration was tested in triplicate. SW620 cells were incubated with test compound for 24 hours at 37° C., 5% CO2. Media was aspirated from each well, and each well washed with 1 mL ice cold PBS. PBS was then aspirated, and 50 μL of cold lysis buffer (RIPA buffer supplemented with 1× protease inhibitors, Benzonase, MgCl) was added to each well; plates were then incubated on ice for 5 minutes. Cells were scraped using a pipette tip before being transferred to a fresh Eppendorf. Samples were spun at maximum speed in a benchtop centrifuge for 5 minutes at 4° C. and supernatant was then transferred to fresh tubes. Samples were stored at −80° C. until analysis.
Bicinchonininic acid (BCA) protein assay standards (2-0.125 mg/mL BSA) were prepared in advance. 6 μL of each standard was pipetted in duplicate into rows A and B of a 384-well assay plate. Test samples were diluted in lysis buffer (1:3-1:10) in a 384-well plate in duplicate. BCA Reagents were combined 50:1, Part A:Part B and 50 μL added to each well. Plates were incubated for 30 min at 37° C. in a plate incubator and read using a BCA protein 384 protocol on an EnSpire plate reader. Protein concentrations were calculated from a standard curve.
JESS Western Blot Protocol
Protein lysates were prepared using Protein Simple EZ standard pack reagents: 40 μL distilled H2O was added to a DTT tube (clear) and treated with 20 μL 10× sample buffer and 20 μL DTT to 5×MM tube (pink). 20 μL dH2O was added to biotinylated ladder tube (green).
Test samples were prepared by dilution to the required concentration (0.1 mg/mL) in 0.1× sample buffer. 1.25 μL 5× fluorescent master mix from the EZ standard pack was added to 5 μL sample for each lane to be loaded (e.g. 2.5 μL+10 μL if loading same sample into 2 wells). Samples were vortexed, briefly spun down and heated at 95° C. for 5 min in a PCR machine then vortexed again and briefly spun down before loading onto JESS cassettes (catalogue No: SM-W004) according to manufacturer's instructions (https://www.proteinsimple.com/technical_library.html?product=simplewestern&def_list=list). Protein expression was determined by the peak area of the target protein signal. Peak area of the target protein was normalised to peak area of the loading control (actin) and to DMSO control.

Each structure is given as a SMILES string. Some results are limits rather than exact numbers.

`Cc1c(O)cc(O)c(C(=O)N2Cc3ccc(CN4CCN(CCOCCOCCOCCOCCOCCNc5cccc6c5C(=O)N(C5CCC(=O)NC5=O)C6=O)CC4)cc3C2)c1OCC1CCCCC1` (centres unmarked) [Example 7, 4-[2-[2-[2-[2-[2-[2-[4-[[2-[2-(Cyclohexylmethoxy)-4,6-dihydroxy-3-methyl-benzoyl]isoindolin-5-yl]methyl]piperazin-1-yl]ethoxy]ethoxy]ethoxy]ethoxy]ethoxy]ethylamino]-2-(2,6-dioxo-3-piperidyl)isoindoline-1,3-dione]: the remaining activity at 1 µM lay in the range of 10 to 25%.
The compound `Cc1c(O)cc(O)c(C(=O)N2Cc3ccc(CN4CCC(C(=O)N5CCN(c6ccc7c(c6)CN(C6CCC(=O)NC6=O)C7=O)CC5)CC4)cc3C2)c1OCC1CCCCC1` (centres unmarked) [Example 21, 3-(5-(4-(1-((2-(2-(cyclohexylmethoxy)-4,6-dihydroxy-3-methylbenzoyl)isoindolin-5-yl)methyl)piperidine-4-carbonyl)piperazin-1-yl)-1-oxoisoindolin-2-yl)piperidine-2,6-dione] showed a remaining activity at 1 µM of 10 to 25%.
In the case of `Cc1c(O)cc(O)c(C(=O)N2Cc3ccc(CN4CCN(CCOCCOCCOCCOCCNc5cccc6c5C(=O)N(C5CCC(=O)NC5=O)C6=O)CC4)cc3C2)c1OCc1ccccc1` (centres unmarked) [Example 3, 4-((14-(4-((2-(2-(Benzyloxy)-4,6-dihydroxy-3-methylbenzoyl)isoindolin-5-yl)methyl)piperazin-1-yl)-3,6,9,12-tetraoxatetradecyl)amino)-2-(2,6-dioxopiperidin-3-yl)isoindoline-1,3-dione] it was 10 to 25%; in that of `Cc1c(O)cc(O)c(C(=O)N2Cc3ccc(CN4CCC(CC(=O)N5CCN(c6ccc7c(c6)CN(C6CCC(=O)NC6=O)C7=O)CC5)CC4)cc3C2)c1OCC1CCCCC1` (centres unmarked) [Example 20, 3-(5-(4-(2-(1-((2-(2-(Cyclohexylmethoxy)-4,6-dihydroxy-3-methylbenzoyl)isoindolin-5-yl)methyl)piperidin-4-yl)acetyl)piperazin-1-yl)-1-oxoisoindolin-2-yl)piperidine-2,6-dione], 10 to 25%; in that of `Cc1ncsc1-c1ccc(CNC(=O)[C@@H]2C[C@@H](O)CN2C(=O)[C@@H](NC(=O)CCCCCCC(=O)N2CCN(Cc3ccc4c(c3)CN(C(=O)c3c(O)cc(O)c(C)c3OCC3CCCCC3)C4)CC2)C(C)(C)C)cc1` [Example 27, (2S,4R)-1-[(2S)-2-[[8-[4-[[2-[2-(Cyclohexylmethoxy)-4,6-dihydroxy-3-methyl-benzoyl]isoindolin-5-yl]methyl]piperazin-1-yl]-8-oxo-octanoyl]amino]-3,3-dimethyl-butanoyl]-4-hydroxy-N-[[4-(4-methylthiazol-5-yl)phenyl]methyl]pyrrolidine-2-carboxamide], below 10%.
In the case of `Cc1ncsc1-c1ccc(CNC(=O)[C@@H]2C[C@@H](O)CN2C(=O)[C@@H](NC(=O)CCCCCCCCCC(=O)N2CCN(Cc3ccc4c(c3)CN(C(=O)c3c(O)cc(O)c(C)c3OCC3CCCCC3)C4)CC2)C(C)(C)C)cc1` [Example 30, (2S,4R)-1-[(2S)-2-[[11-[4-[[2-[2-(Cyclohexylmethoxy)-4,6-dihydroxy-3-methyl-benzoyl]isoindolin-5-yl]methyl]piperazin-1-yl]-11-oxo-undecanoyl]amino]-3,3-dimethyl-butanoyl]-4-hydroxy-N-[[4-(4-methylthiazol-5-yl)phenyl]methyl]pyrrolidine-2-carboxamide] it was below 10%.
In turn, `Cc1ncsc1-c1ccc(CNC(=O)[C@@H]2C[C@@H](O)CN2C(=O)[C@@H](NC(=O)CCCCCCCCC(=O)N2CCN(Cc3ccc4c(c3)CN(C(=O)c3c(O)cc(O)c(C)c3OCC3CCCCC3)C4)CC2)C(C)(C)C)cc1` [Example 29, (2S,4R)-1-[(2S)-2-[[10-[4-[[2-[2-(Cyclohexylmethoxy)-4,6-dihydroxy-3-methyl-benzoyl]isoindolin-5-yl]methyl]piperazin-1-yl]-10-oxo-decanoyl]amino]-3,3-dimethyl-butanoyl]-4-hydroxy-N-[[4-(4-methylthiazol-5-yl)phenyl]methyl]pyrrolidine-2-carboxamide] returned a remaining activity at 1 µM below 10%.
In turn, `Cc1ncsc1-c1ccc(CNC(=O)[C@@H]2C[C@@H](O)CN2C(=O)[C@@H](NC(=O)CCCCCCCC(=O)N2CCN(Cc3ccc4c(c3)CN(C(=O)c3c(O)cc(O)c(C)c3OCC3CCCCC3)C4)CC2)C(C)(C)C)cc1` [Example 28, (2S,4R)-1-[(2S)-2-[[9-[4-[[2-[2-(Cyclohexylmethoxy)-4,6-dihydroxy-3-methyl-benzoyl]isoindolin-5-yl]methyl]piperazin-1-yl]-9-oxo-nonanoyl]amino]-3,3-dimethyl-butanoyl]-4-hydroxy-N-[[4-(4-methylthiazol-5-yl)phenyl]methyl]pyrrolidine-2-carboxamide] returned a remaining activity at 1 µM below 10%.
In the case of `Cc1c(O)cc(O)c(C(=O)N2Cc3ccc(C(=O)N4CCC(CN5CCN(c6cc7c(cc6F)C(=O)N(C6CCC(=O)NC6=O)C7=O)CC5)CC4)cc3C2)c1OCc1ccccc1` (centres unmarked) [Example 23, 5-(4-((1-(2-(2-(Benzyloxy)-4,6-dihydroxy-3-methylbenzoyl)isoindoline-5-carbonyl)piperidin-4-yl)methyl)piperazin-1-yl)-2-(2,6-dioxopiperidin-3-yl)-6-fluoroisoindoline-1,3-dione] it was 10 to 25%; in that of `Cc1c(O)cc(O)c(C(=O)N2Cc3ccc(CN4CCN(CCOCCOCCOCCNc5cccc6c5C(=O)N(C5CCC(=O)NC5=O)C6=O)CC4)cc3C2)c1OCC1CCCCC1` (centres unmarked) [Example 5, 4-[2-[2-[2-[2-[4-[[2-[2-(Cyclohexylmethoxy)-4,6-dihydroxy-3-methyl-benzoyl]isoindolin-5-yl]methyl]piperazin-1-yl]ethoxy]ethoxy]ethoxy]ethylamino]-2-(2,6-dioxo-3-piperidyl)isoindoline-1,3-dione], 10 to 25%.
For `Cc1ncsc1-c1ccc(CNC(=O)[C@@H]2C[C@@H](O)CN2C(=O)[C@@H](NC(=O)CCCCCCC(=O)N2CCN(Cc3ccc4c(c3)CN(C(=O)c3c(O)cc(O)c(C)c3OCc3ccccc3)C4)CC2)C(C)(C)C)cc1` [Example 25, (2S,4R)-1-[(2S)-2-[[8-[4-[[2-(2-Benzyloxy-4,6-dihydroxy-3-methyl-benzoyl)isoindolin-5-yl]methyl]piperazin-1-yl]-8-oxo-octanoyl]amino]-3,3-dimethyl-butanoyl]-4-hydroxy-N-[[4-(4-methylthiazol-5-yl)phenyl]methyl]pyrrolidine-2-carboxamide] the value was below 10%.
